EP4603105A1, “PHARMACEUTICAL COMPOSITION CONTAINING CYCLIC COMPOUND HAVING SELECTIVE KRAS INHIBITORY EFFECT AGAINST HRAS AND NRAS” (CHUGAI SEIYAKU KABUSHIKI KAISHA, priority 2022, dated 2024)
Like-named read-outs stand apart in the source and are kept apart here. *1 amine or outer side, *2 acyl side, *3 side chain or, on linkers, in order; H or OH if unused. Where a SMILES comes first, the peptide text is derived from it. Bridges are numbered along the chain shown (N, C = ends). [ ]: non-standard residue; d: D form. The star is where a group is joined. hPhe(3,5-F2-4-CF3) = N[C@@H](CCc1cc(F)c(C(F)(F)F)c(F)c1)C(=O)O; hPhe(3-Cl-4-CF3) = N[C@@H](CCc1ccc(C(F)(F)F)c(Cl)c1)C(=O)O; NPrPhe(4-CF3) = CCCN[C@@H](Cc1ccc(C(F)(F)F)cc1)C(=O)O; NEtAsp = CCN([C@@H](CC(=O)[*:3])C(=O)[*:2])[*:1]; NMeGly(cPent) = CN[C@H](C(=O)O)C1CCCC1; Nva(3-Et) = CCC(CC)[C@H](N)C(=O)O; NMeD = CN[C@@H](CC(=O)O)C(=O)O; NMeL = CN[C@@H](CC(C)C)C(=O)O; Morpholide = C1CN(*)CCO1; Ac5c = NC1(C(=O)O)CCCC1; Sar = CNCC(=O)O

Legend:
HRAS wild-type protein = HRAS wild-type protein (Homo sapiens, UniProt P01112); test: Binding to HRAS by surface plasmon resonance (SPR), KD and KD ratio to KRAS
Method in brief: (§1)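 Captured GDP-RAS (~100–300 RU) was exposed to increasing compound concentrations, 75 s per step, in running buffer with 10 µM GDP, 10 mM MgCl2 and 4% DMSO at pH 7.4.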

[1] = biological target: GDP-bound NRAS wild-type protein (Homo sapiens, UniProt P01111); test: Binding to NRAS by surface plasmon resonance (SPR), KD and KD ratio to KRAS
Method in brief: as §1

[2] = test system: human lung cancer strain NCI-H441; format: cell-based
Method in brief: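 Step one: dispense the test compound in serial DMSO dilutions. Step three: add the reagent and measure […].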

[3] = ratio of the KD value with respect to HRAS wild-type protein to the KD value with respect to KRAS
[4] = ratio of the KD value with respect to GDP-bound NRAS wild-type protein to the KD value with respect to KRAS
[5] = ratio of KD value for HRAS wild-type protein to KD value for KRAS (SPR)
[6] = ratio of KD value for GDP-bound NRAS wild-type protein to KD value for KRAS (SPR)
[7] = ratio of KD for HRAS wild-type protein to KD for KRAS
[8] = ratio of KD for GDP-bound NRAS wild-type protein to KD for KRAS

GDP-bound NRAS wild-type protein, sequence (P01111 whole entry): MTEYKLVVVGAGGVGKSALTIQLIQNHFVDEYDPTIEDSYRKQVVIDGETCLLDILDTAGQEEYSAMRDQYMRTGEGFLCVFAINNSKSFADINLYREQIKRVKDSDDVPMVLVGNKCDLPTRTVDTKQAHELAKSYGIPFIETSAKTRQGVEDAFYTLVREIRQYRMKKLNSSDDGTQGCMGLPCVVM
HRAS wild-type protein, sequence (P01112 whole entry): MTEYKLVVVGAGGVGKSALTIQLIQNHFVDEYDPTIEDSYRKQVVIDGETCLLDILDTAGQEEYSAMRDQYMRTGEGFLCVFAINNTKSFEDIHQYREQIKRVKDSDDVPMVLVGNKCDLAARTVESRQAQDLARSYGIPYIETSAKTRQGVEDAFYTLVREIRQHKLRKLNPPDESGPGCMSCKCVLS

## CCO[C@@H]1C[C@H]2C(=O)NC3(CCC3)C(=O)N(C)[C@@H](C3CCCC3)C(=O)N(C)[C@H](C(=O)N(C)CCOC)CC(=O)N(C)[C@@H](CC(C)C)C(=O)N[C@@H]([C@@H](C)CC)C(=O)N(C)CC(=O)N(C)[C@H]3C/C=C\CCN(C3=O)[C@@H](Cc3ccc(C(F)(F)F)cc3)C(=O)N(C)CC(=O)N[C@@H](CCc3ccc(C(F)(F)F)c(OC)c3)C(=O)N2C1 [PP1324]
HRAS wild-type protein; ratio of KD with respect to HRAS wild-type protein to KD with respect to KRAS
  HRAS /KRAS: A (a compound having 10 or more and less than 20 is denoted as A)
[1]; ratio of KD with respect to GDP-bound NRAS wild-type protein to KD with respect to KRAS
  NRAS /KRAS: A (a compound having 10 or more and less than 20 is denoted as A)
[2]
  IC50: 4.4 nM

## CC[C@H](C)[C@@H]1NC(=O)[C@H](C(C)C)N(C)C(=O)C[C@@H](C(=O)N(C)CC)N(C)C(=O)[C@H](C2CCCC2)N(C)C(=O)C2(CC(C)(C)C2)NC(=O)[C@@H]2C[C@H](C)CN2C(=O)[C@H](CCc2ccc(C(F)(F)F)c(OC)c2)NC(=O)CN(C)C(=O)[C@H](Cc2ccc(C(F)(F)F)cc2)N2CC/C=C\C[C@@H](C2=O)N(C)C(=O)CN(C)C1=O [PP2003]
HRAS wild-type protein; [3]
  HRAS /KRAS: B (a compound having 3 or more and less than 10 is denoted as B)
[1]; [4]
  NRAS /KRAS: A (a compound having 10 or more and less than 20 is denoted as A)
[2]
  IC50: 11.3 nM

## CC[C@H](C)[C@@H]1NC(=O)[C@H](COC)N(C)C(=O)C[C@@H](C(=O)N(C)C)N(C)C(=O)[C@H](C2CCCC2)N(C)C(=O)C2(CC(C)(C)C2)NC(=O)[C@@H]2CC(F)(F)CN2C(=O)[C@H](CCc2cc(F)c(C(F)(F)F)c(F)c2)NC(=O)CN(C)C(=O)[C@H](Cc2ccc(C(F)(F)F)cc2)N2CC/C=C\C[C@@H](C2=O)N(C)C(=O)CN(C)C1=O [PP1717]
HRAS wild-type protein; [5]
  HRAS /KRAS: A (a compound having 10 or more and less than 20 is denoted as A)
[1]; [6]
  NRAS /KRAS: A (a compound having 10 or more and less than 20 is denoted as A)
[2]
  IC50: 2.4 nM

## CCCN1C(=O)CN(C)C(=O)CN(C)C(=O)[C@H](C(CC)CC)NC(=O)[C@H](CC(C)C)N(C)C(=O)C[C@@H](C(=O)N(C)C)N(C)C(=O)[C@H](C2CCCC2)N(C)C(=O)C2(CCCC2)NC(=O)[C@@H]2CCCN2C(=O)[C@H](CCc2cc(F)c(C(F)(F)F)c(F)c2)NC(=O)CN(C)C(=O)[C@@H]1Cc1ccc(C(F)(F)F)cc1 [PP0747] ([NMeL][Nva(3-Et)][Sar][Sar][NPrPhe(4-CF3)][Sar][hPhe(3,5-F2-4-CF3)]P[Ac5c][NMeGly(cPent)][NMeD]-NMe2; lactam N-11)
HRAS wild-type protein; [3]
  HRAS /KRAS: C (A compound having a KD ratio of 0.1 or more and less than 3 is denoted as C)
[1]; [4]
  NRAS /KRAS: B (a compound having 3 or more and less than 10 is denoted as B)
[2]
  IC50: 45.9 nM

## CCO[C@@H]1C[C@H]2C(=O)NC3(CCC3)C(=O)N(C)[C@@H](C(CC)CC)C(=O)N(C)[C@H](C(=O)N3CCOCC3)CC(=O)N(C)[C@@H](CC(C)C)C(=O)N[C@@H]([C@@H](C)CC)C(=O)N(C)CC(=O)N(C)[C@H]3CCCCN(C3=O)[C@@H](Cc3ccc(C(F)(F)F)cc3)C(=O)N(C)CC(=O)N[C@@H](CCc3cc(F)c(C(F)(F)F)c(F)c3)C(=O)N2C1 [PP0811]
HRAS wild-type protein; [7]
  HRAS /KRAS: B (a compound having 3 or more and less than 10 is denoted as B)
[1]; [8]
  NRAS /KRAS: B (a compound having 3 or more and less than 10 is denoted as B)
[2]
  IC50: 9.8 nM

## CCO[C@@H]1C[C@H]2C(=O)NC3(CC(C)(C)C3)C(=O)N(C)[C@@H](C(CC)CC)C(=O)N(C)[C@H](C(=O)N(C)C)CC(=O)N(C)[C@@H](CC3CCC3)C(=O)N[C@@H]([C@@H](C)CC)C(=O)N(C)CC(=O)N(C)[C@H]3C/C=C\CCN(C3=O)[C@@H](Cc3ccc(C)cc3)C(=O)N(C)CC(=O)N[C@@H](CCc3cc(F)c(C(F)(F)F)c(F)c3)C(=O)N2C1 [PP2151]
HRAS wild-type protein; [3]
  HRAS /KRAS: A (a compound having 10 or more and less than 20 is denoted as A)
[1]; [4]
  NRAS /KRAS: A (a compound having 10 or more and less than 20 is denoted as A)
[2]
  IC50: 23.3 nM

## C=CCN1CC(=O)N(C)[C@H]2C/C=C\CCN(C2=O)[C@@H](Cc2ccc(C)cc2)C(=O)N(C)CC(=O)N[C@@H](CCc2cc(F)c(C(F)(F)F)c(F)c2)C(=O)N2C[C@H](OCC)C[C@H]2C(=O)NC2(CC(C)(C)C2)C(=O)N(C)[C@@H](C2CCCC2)C(=O)N(C)[C@H](C(=O)N(C)C)CC(=O)N(C)[C@@H](CC(C)C)C(=O)N[C@@H]([C@@H](C)CC)C1=O [PP2050]
HRAS wild-type protein; [3]
  HRAS /KRAS: A (a compound having 10 or more and less than 20 is denoted as A)
[1]; [4]
  NRAS /KRAS: A (a compound having 10 or more and less than 20 is denoted as A)
[2]
  IC50: 7.5 nM

## CCC[C@H]1C(=O)N[C@@H]([C@@H](C)CC)C(=O)N(C)CC(=O)N(C)[C@H]2C/C=C\CCN(C2=O)[C@@H](Cc2ccc(C(F)(F)F)cc2)C(=O)N(C)CC(=O)N[C@@H](CCc2cc(F)c(C(F)F)c(OC)c2)C(=O)N2C[C@H](OCC)C[C@H]2C(=O)NC2(CC(C)(C)C2)C(=O)N(C)[C@@H](C2CCCC2)C(=O)N(C)[C@H](C(=O)N(C)C)CC(=O)N1C [PP2867]
HRAS wild-type protein; [7]
  HRAS /KRAS: A (a compound having 10 or more and less than 20 is denoted as A)
[1]; [8]
  NRAS /KRAS: A (a compound having 10 or more and less than 20 is denoted as A)
[2]; NCI-H441 cells, 4 days, CellTiter-Glo, read-out: NCl-H441 IC50
  IC50: 17.1 nM

## CCCC[C@H]1C(=O)N[C@@H]([C@@H](C)CC)C(=O)N(C)CC(=O)N(C)[C@H]2C/C=C\CCN(C2=O)[C@@H](Cc2ccc(C(F)(F)F)cc2)C(=O)N(C)CC(=O)N[C@@H](CCc2cc(F)c(C(F)(F)F)c(F)c2)C(=O)N2C[C@H](OCC)C[C@H]2C(=O)NC2(CC(C)(C)C2)C(=O)N(C)[C@@H](C2CCCC2)C(=O)N(C)[C@H](C(=O)N(C)C)CC(=O)N1C [PP1649]
HRAS wild-type protein; [5]
  HRAS /KRAS: B (a compound having 3 or more and less than 10 is denoted as B)
[1]; [6]
  NRAS /KRAS: A (a compound having 10 or more and less than 20 is denoted as A)
[2]
  IC50: 2.2 nM

## CCO[C@@H]1C[C@H]2C(=O)NC3(CC(C)(C)C3)C(=O)N(C)[C@@H](C(CC)CC)C(=O)N(C)[C@H](C(=O)N3CCCC3)CC(=O)N(C)[C@@H](C)C(=O)N[C@@H]([C@@H](C)CC)C(=O)N(C)CC(=O)N(C)[C@H]3C/C=C\CCN(C3=O)[C@@H](Cc3ccc(C)cc3)C(=O)N(C)CC(=O)N[C@@H](CCc3cc(F)c(C(F)(F)F)c(F)c3)C(=O)N2C1 [PP2145]
HRAS wild-type protein; [3]
  HRAS /KRAS: A (a compound having 10 or more and less than 20 is denoted as A)
[1]; [4]
  NRAS /KRAS: A (a compound having 10 or more and less than 20 is denoted as A)
[2]
  IC50: 17.2 nM

## CCCN1C(=O)CN(C)C(=O)CNC(=O)[C@H]([C@@H](C)CC)NC(=O)[C@H](CC(C)C)N(C)C(=O)C[C@@H](C(=O)N2CCOCC2)N(CC)C(=O)[C@H](C2CCCC2)N(C)C(=O)C2(CCCC2)NC(=O)[C@@H]2CCCN2C(=O)[C@H](CCc2ccc(C(F)(F)F)c(Cl)c2)NC(=O)CN(C)C(=O)[C@@H]1Cc1ccc(C(F)(F)F)cc1 [PP1970] ([NMeL]IG[Sar][NPrPhe(4-CF3)][Sar][hPhe(3-Cl-4-CF3)]P[Ac5c][NMeGly(cPent)][NEtAsp]-Morpholide; lactam N-11)
HRAS wild-type protein; [3]
  HRAS /KRAS: B (a compound having 3 or more and less than 10 is denoted as B)
[1]; [4]
  NRAS /KRAS: B (a compound having 3 or more and less than 10 is denoted as B)
[2]
  IC50: 16.8 nM

## CCCN1C(=O)CN(C)C(=O)CN(C)C(=O)[C@H]([C@@H](C)CC)NC(=O)[C@@H]2CCCCCCOc3ccc(cc3)C[C@H]1C(=O)N(C)CC(=O)N[C@@H](CCc1cc(F)c(C(F)(F)F)c(F)c1)C(=O)N1C[C@H](OCC)C[C@H]1C(=O)NC1(CCCC1)C(=O)N(C)[C@@H](C1CCCC1)C(=O)N(C)[C@H](C(=O)N(C)C)CC(=O)N2C [PP0896]
HRAS wild-type protein; [7]
  HRAS /KRAS: C (A compound having a KD ratio of 0.1 or more and less than 3 is denoted as C)
[1]; [8]
  NRAS /KRAS: C (A compound having a KD ratio of 0.1 or more and less than 3 is denoted as C)
[2]
  IC50: 3.1 nM
